Patent publication US8574563B2 (Bristol-Myers Squibb Company, priority 2006, dated 2013)

Test system: HCV 1b-377-neo replicon cells
Test: HCV replicon assay, HCV 1b-377-neo replicon cells (1b FRET)
Type: cell-based, Hepatitis C virus genotype 1b
Conditions: HCV 1b-377-neo replicon cells, HCV 1b genotype; for EC50: Hepatitis C virus, read-out: EC50 range against HCV 1b (Table 2, Range)
Outline: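 Compounds were tested in genotype 1b subgenomic replicon cells carrying a neomycin marker, alongside a matched replicon line with an NS5A Y2065H substitution that confers resistance to a reference NS5A inhibitor.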

For COC(=O)N[C@@H](C(=O)N1CCC[C@H]1c1ncc(-c2ccc(-c3ccc(-c4cnc([C@@H]5CCCN5C(=O)[C@H](NC(=O)OC)c5ccccc5)[nH]4)cc3C(=O)O)cc2)[nH]1)c1ccccc1 [Example M117, 4,4′-bis(2-((2S)-1-((2R)-2-((methoxycarbonyl)amino)-2-phenylacetyl)-2-pyrrolidinyl)-1H-imidazol-5-yl)-2-biphenylcarboxylic acid], the “EC50 range against HCV 1b (Table 2, Range)” value was “>A”.
COC(=O)N[C@H](C(=O)N1CCC[C@H]1c1ncc(-c2ccc(-c3ccc(-c4cnc([C@@H]5CCCN5C(=O)[C@@H](NC(=O)OC)C(C)C)[nH]4)cc3C(N)=O)cc2)[nH]1)C(C)C [Example M118, methyl ((1S)-1-(((2S)-2-(5-(2′-carbamoyl-4′-(2-((2S)-1-((2S)-2-((methoxycarbonyl)amino)-3-methylbutanoyl)-2-pyrrolidinyl)-1H-imidazol-5-yl)-4-biphenylyl)-1H-imidazol-2-yl)-1-pyrrolidinyl)carbonyl)-2-methylpropyl)carbamate] was tested, and the “EC50 range against HCV 1b (Table 2, Range)” value was “>A”.
COC(=O)N[C@H](C(=O)N1CCC[C@H]1c1ncc(-c2ccc(-c3ccc(-c4cnc([C@@H]5CCCN5C(=O)[C@@H](NC(=O)OC)C(C)C)[nH]4)cc3CO)cc2)[nH]1)C(C)C [Example M119, methyl ((1S)-1-(((2S)-2-(5-(2-(hydroxymethyl)-4′-(2-((2S)-1-((2S)-2-((methoxycarbonyl)amino)-3-methylbutanoyl)-2-pyrrolidinyl)-1H-imidazol-5-yl)-4-biphenylyl)-1H-imidazol-2-yl)-1-pyrrolidinyl)carbonyl)-2-methylpropyl)carbamate] gave an EC50 of 100 to 999 nM.
Compound COC(=O)N[C@H](C(=O)N1CCC[C@H]1c1ncc(-c2ccc(-c3ccc(-c4cnc([C@@H]5CCCN5C(=O)[C@@H](NC(=O)OC)C(C)C)[nH]4)cc3CN(C)C)cc2)[nH]1)C(C)C [Example M120] has an EC50 of 100 to 999 nM.
COC(=O)N[C@@H](C(=O)N1CCC[C@H]1c1ncc(-c2ccc(-c3ccc(-c4cnc([C@@H]5CCCN5C(=O)[C@H](NC(=O)OC)c5ccccc5)[nH]4)cc3CN(C)C)cc2)[nH]1)c1ccccc1 [Example M121] showed an EC50 of 100 to 999 nM.
COC(=O)N[C@H](C(=O)N1[C@H](c2ncc(-c3ccc(-c4ccc(-c5cnc([C@@H]6C[C@@H]7C[C@@H]7N6C(=O)[C@@H](NC(=O)OC)C(C)C)[nH]5)cc4)cc3)[nH]2)C[C@@H]2C[C@@H]21)C(C)C [Example M122, methyl ((1S)-1-(((1S,3S,5S)-3-(5-(4′-(2-((1S,3S,5S)-2-((2S)-2-((methoxycarbonyl)amino)-3-methylbutanoyl)-2-azabicyclo[3.1.0]hex-3-yl)-1H-imidazol-5-yl)-4-biphenylyl)-1H-imidazol-2-yl)-2-azabicyclo[3.1.0]hex-2-yl)carbonyl)-2-methylpropyl)carbamate] showed an EC50 of 1 to 99 nM.
With COC(=O)N[C@@H](C(=O)N1[C@H](c2ncc(-c3ccc(-c4ccc(-c5cnc([C@@H]6C[C@@H]7C[C@@H]7N6C(=O)[C@H](NC(=O)OC)C(C)C)[nH]5)cc4)cc3)[nH]2)C[C@@H]2C[C@@H]21)C(C)C [Example M123, methyl ((1R)-1-(((1S,3S,5S)-3-(5-(4′-(2-((1S,3S,5S)-2-((2R)-2-((methoxycarbonyl)amino)-3-methylbutanoyl)-2-azabicyclo[3.1.0]hex-3-yl)-1H-imidazol-5-yl)-4-biphenylyl)-1H-imidazol-2-yl)-2-azabicyclo[3.1.0]hex-2-yl)carbonyl)-2-methylpropyl)carbamate] the EC50 was 1000 to 10000 nM.
Work on COC(=O)N[C@@H](C(=O)N1[C@H](c2ncc(-c3ccc(-c4ccc(-c5cnc([C@@H]6C[C@@H]7C[C@@H]7N6C(=O)[C@H](NC(=O)OC)c6ccccc6)[nH]5)cc4)cc3)[nH]2)C[C@@H]2C[C@@H]21)c1ccccc1 [Example M124, dimethyl (4,4′-biphenyldiylbis(1H-imidazole-5,2-diyl(1S,3S,5S)-2-azabicyclo[3.1.0]hexane-3,2-diyl((1R)-2-oxo-1-phenyl-2,1-ethanediyl)))biscarbamate] yielded an EC50 of 1 to 99 nM.
With COC(=O)N[C@H](C(=O)N1[C@H](c2ncc(-c3ccc(-c4ccc(-c5cnc([C@@H]6C[C@@H]7C[C@@H]7N6C(=O)[C@@H](NC(=O)OC)C(C)(C)O)[nH]5)cc4)cc3)[nH]2)C[C@@H]2C[C@@H]21)C(C)(C)O [Example M125, methyl ((1S)-2-hydroxy-1-(((1S,3S,5S)-3-(5-(4′-(2-((1S,3S,5S)-2-((2S)-3-hydroxy-2-((methoxycarbonyl)amino)-3-methylbutanoyl)-2-azabicyclo[3.1.0]hex-3-yl)-1H-imidazol-5-yl)-4-biphenylyl)-1H-imidazol-2-yl)-2-azabicyclo[3.1.0]hex-2-yl)carbonyl)-2-methylpropyl)carbamate] the EC50 was 1 to 99 nM.
Work on CC[C@H](NC(=O)OC)C(=O)N1[C@H](c2ncc(-c3ccc(-c4ccc(-c5cnc([C@@H]6C[C@@H]7C[C@@H]7N6C(=O)[C@H](CC)NC(=O)OC)[nH]5)cc4)cc3)[nH]2)C[C@@H]2C[C@@H]21 [Example M126, dimethyl (4,4′-biphenyldiylbis(1H-imidazole-5,2-diyl(1S,3S,5S)-2-azabicyclo[3.1.0]hexane-3,2-diyl((2S)-1-oxo-1,2-butanediyl)))biscarbamate] yielded an EC50 of 1 to 99 nM.
In the case of COC(=O)N[C@H](C(=O)N1[C@H](c2ncc(-c3ccc(-c4ccc(-c5cnc([C@@H]6C[C@@H]7C[C@@H]7N6C(=O)[C@@H](NC(=O)OC)C6CC6)[nH]5)cc4)cc3)[nH]2)C[C@@H]2C[C@@H]21)C1CC1 [Example M127, dimethyl (4,4′-biphenyldiylbis(1H-imidazole-5,2-diyl(1S,3S,5S)-2-azabicyclo[3.1.0]hexane-3,2-diyl((1S)-1-cyclopropyl-2-oxo-2,1-ethanediyl)))biscarbamate], the EC50 is reported as 1 to 99 nM.
Work on COC(=O)N[C@H](C(=O)N1[C@H](c2ncc(-c3ccc(-c4ccc(-c5cnc([C@@H]6C[C@@H]7C[C@@H]7N6C(=O)[C@@H](NC(=O)OC)C(C)(C)C)[nH]5)cc4)cc3)[nH]2)C[C@@H]2C[C@@H]21)C(C)(C)C [Example M128, methyl ((1S)-1-(((1S,3S,5S)-3-(5-(4′-(2-((1S,3S,5S)-2-((2S)-2-((methoxycarbonyl)amino)-3,3-dimethylbutanoyl)-2-azabicyclo[3.1.0]hex-3-yl)-1H-imidazol-5-yl)-4-biphenylyl)-1H-imidazol-2-yl)-2-azabicyclo[3.1.0]hex-2-yl)carbonyl)-2,2-dimethylpropyl)carbamate] yielded an EC50 of 1 to 99 nM.
Work on COC(=O)NCC(=O)N1[C@H](c2ncc(-c3ccc(-c4ccc(-c5cnc([C@@H]6C[C@@H]7C[C@@H]7N6C(=O)CNC(=O)OC)[nH]5)cc4)cc3)[nH]2)C[C@@H]2C[C@@H]21 [Example M129, methyl (2-((1S,3S,5S)-3-(5-(4′-(2-((1S,3S,5S)-2-(((methoxycarbonyl)amino)acetyl)-2-azabicyclo[3.1.0]hex-3-yl)-1H-imidazol-5-yl)-4-biphenylyl)-1H-imidazol-2-yl)-2-azabicyclo[3.1.0]hex-2-yl)-2-oxoethyl)carbamate] yielded an EC50 of 1000 to 10000 nM.
For COC(=O)N[C@@H](C)C(=O)N1[C@H](c2ncc(-c3ccc(-c4ccc(-c5cnc([C@@H]6C[C@@H]7C[C@@H]7N6C(=O)[C@H](C)NC(=O)OC)[nH]5)cc4)cc3)[nH]2)C[C@@H]2C[C@@H]21 [Example M130, methyl ((1S)-2-((1S,3S,5S)-3-(5-(4′-(2-((1S,3S,5S)-2-(N-(methoxycarbonyl)-L-alanyl)-2-azabicyclo[3.1.0]hex-3-yl)-1H-imidazol-5-yl)-4-biphenylyl)-1H-imidazol-2-yl)-2-azabicyclo[3.1.0]hex-2-yl)-1-methyl-2-oxoethyl)carbamate], the EC50 was 1 to 99 nM.
COC(=O)N[C@H](C(=O)N1[C@@H](c2ncc(-c3ccc(-c4ccc(-c5cnc([C@H]6C[C@H]7C[C@H]7N6C(=O)[C@@H](NC(=O)OC)C(C)C)[nH]5)cc4)cc3)[nH]2)C[C@H]2C[C@H]21)C(C)C [Example M131, methyl ((1S)-1-(((1R,3R,5R)-3-(5-(4′-(2-((1R,3R,5R)-2-((2S)-2-((methoxycarbonyl)amino)-3-methylbutanoyl)-2-azabicyclo[3.1.0]hex-3-yl)-1H-imidazol-5-yl)-4-biphenylyl)-1H-imidazol-2-yl)-2-azabicyclo[3.1.0]hex-2-yl)carbonyl)-2-methylpropyl)carbamate] was tested, and the EC50 was 0.001 to 0.999 nM.
For COC(=O)N[C@@H](C)C(=O)N1[C@@H]2C[C@@H]2C[C@H]1c1ncc(-c2ccc(-c3ccc(-c4cnc([C@@H]5C[C@H]6C[C@H]6N5C(=O)[C@H](C)NC(=O)OC)[nH]4)cc3)cc2)[nH]1 [Example M132, methyl ((1S)-2-((1R,3S,5R)-3-(4-(4′-(2-((1R,3S,5R)-2-(N-(methoxycarbonyl)-L-alanyl)-2-azabicyclo[3.1.0]hex-3-yl)-1H-imidazol-4-yl)-4-biphenylyl)-1H-imidazol-2-yl)-2-azabicyclo[3.1.0]hex-2-yl)-1-methyl-2-oxoethyl)carbamate], the EC50 was 0.001 to 0.999 nM.
In the case of CC[C@H](NC(=O)OC)C(=O)N1[C@@H]2C[C@@H]2C[C@H]1c1nc(-c2ccc(-c3ccc(-c4c[nH]c([C@@H]5C[C@H]6C[C@H]6N5C(=O)[C@H](CC)NC(=O)OC)n4)cc3)cc2)c[nH]1 [Example M133, dimethyl (4,4′-biphenyl-diylbis(1H-imidazole-4,2-diyl(1R,3S,5R)-2-azabicyclo[3.1.0]hexane-3,2-diyl((2S)-1-oxo-1,2-butanediyl)))biscarbamate], the EC50 is reported as 0.001 to 0.999 nM.
With COC(=O)NCC(=O)N1[C@@H]2C[C@@H]2C[C@H]1c1nc(-c2ccc(-c3ccc(-c4c[nH]c([C@@H]5C[C@H]6C[C@H]6N5C(=O)CNC(=O)OC)n4)cc3)cc2)c[nH]1 [Example M134, methyl (2-((1R,3S,5R)-3-(4-(4′-(2-((1R,3S,5R)-2-(((methoxy-carbonyl)amino)acetyl)-2-azabicyclo[3.1.0]hex-3-yl)-1H-imidazol-4-yl)-4-biphenylyl)-1H-imidazol-2-yl)-2-azabicyclo[3.1.0]hex-2-yl)-2-oxoethyl)carbamate] the EC50 was 1 to 99 nM.
